Results published in US8841321B2, “Quinoline derivatives as antibacterial agents” (Janssen Pharmaceutica NV, priority 2005, dated 2014).
In brackets after ≈: the same amount, converted by molar mass.

What was measured:
Experiment in all cases: Microtitre plate assay, IC90 determination
Type in all cases: cell-based
[1] = tested on: SPY 8668 (Streptococcus pyogens (ATCC8668)); details: for IC90 (μg/ml) SPY 8668: Streptococcus pyogens (ATCC8668); for IC90: Streptococcus, ATCC8668, Streptococcus pyogens (ATCC8668), read-out: IC90 (μg/ml) SPY 8668
[2] = tested on: PAE 27853 (Pseudomonas aeruginosa (ATCC27853)); details: for IC90 (μg/ml) PAE 27853: Pseudomonas aeruginosa (ATCC27853); for IC90: Pseudomonas aeruginosa, ATCC27853, Pseudomonas aeruginosa (ATCC27853), read-out: IC90 (μg/ml) PAE 27853
[3] = tested on: SPN 6305 (Streptococcus pneumoniae (ATCC6305)); details: for IC90 (μg/ml) SPN 6305: Streptococcus pneumoniae (ATCC6305)
Summary of the method: (§1)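 Growth-inhibition endpoint: resazurin added 3 h after inoculation, plates incubated overnight, fluorescence at 530/590 nm after 24 h at 37 °C. Inocula of roughly 10–60 CFU per well in Mueller-Hinton medium; compounds titrated five-fold. IC90 reported as μg/ml.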

[4] = tested on: STA 29213 (Staphylococcus aureus (ATCC29213)); details: for IC90 (μg/ml) STA 29213: Staphylococcus aureus (ATCC29213)
Summary of the method: as §1

[5] = tested on: EFA 29212 (Enterococcus faecalis (ATCC29212)); details: for IC90 (μg/ml) EFA 29212: Enterococcus faecalis (ATCC29212); for IC90: Enterococcus faecalis, ATCC29212, Enterococcus faecalis (ATCC29212), read-out: IC90 (μg/ml) EFA 29212

SMILES	IC90 (μg/ml) SPY 8668 [1]	IC90 (μg/ml) PAE 27853 [2]	IC90 (μg/ml) SPN 6305 [3]	IC90 (μg/ml) STA 29213 [4]	IC90 (μg/ml) EFA 29212 [5]	IC90 [5]	IC90 [1]	IC90 [2]	IC90 ([3]; Streptococcus pneumoniae, ATCC6305, Streptococcus pneumoniae (ATCC6305), read-out: IC90 (μg/ml) SPN 6305)	IC90 ([4]; Staphylococcus aureus, ATCC29213, Staphylococcus aureus (ATCC29213), read-out: IC90 (μg/ml) STA 29213)
COc1nc2ccc(Br)cc2cc1C(c1ccccc1)C(O)(CCCCCN(C)C)c1ccccc1 (single isomer, unassigned) [Compound 154]	8.68 µg/mL (≈ 15.9 µM)	8.68 µg/mL (≈ 15.9 µM)	1.75 µg/mL (≈ 3.2 µM)	1.75 µg/mL (≈ 3.2 µM)						
COc1ccc(C(c2cc3cc(Br)ccc3nc2OC)C(O)(CCCCN(C)C)c2ccc3ccccc3c2)cc1 (single isomer, unassigned) [Compound 158]	0.87 µg/mL (≈ 1.42 µM)	0.87 µg/mL (≈ 1.42 µM)	1.22 µg/mL (≈ 1.99 µM)	0.4 µg/mL (≈ 0.652 µM)	1.94 µg/mL (≈ 3.16 µM)					
COc1nc2ccccc2cc1C(c1cccc(Br)c1)C(O)(CCCCN(C)C)c1ccc2ccccc2c1 (single isomer, unassigned) [Compound 159]	1.47 µg/mL (≈ 2.52 µM)	1.85 µg/mL (≈ 3.17 µM)	0.41 µg/mL (≈ 0.703 µM)	1.85 µg/mL (≈ 3.17 µM)	1.85 µg/mL (≈ 3.17 µM)					
COc1ccc(C(O)(CCCCN2CCCCC2)C(c2ccc(C)cc2)c2cc3cc(Br)ccc3nc2OC)cc1 (single isomer, unassigned) [Compound 168]	1.95 µg/mL (≈ 3.16 µM)	1.95 µg/mL (≈ 3.16 µM)	2.46 µg/mL (≈ 3.98 µM)	2.19 µg/mL (≈ 3.55 µM)	1.95 µg/mL (≈ 3.16 µM)					
COc1nc2ccc(Br)cc2cc1C(c1ccc(Cl)cc1)C(O)(CCCCN1CCCCC1)c1ccccc1 (single isomer, unassigned) [Compound 170]	9.64 µg/mL (≈ 15.9 µM)	9.64 µg/mL (≈ 15.9 µM)	9.64 µg/mL (≈ 15.9 µM)	21.57 µg/mL (≈ 35.5 µM)	9.64 µg/mL (≈ 15.9 µM)					
COc1nc2ccc(Br)cc2cc1C(c1ccc(Cl)c(Cl)c1)C(O)(CCCCN1CCCCC1)c1ccccc1 (single isomer, unassigned) [Compound 173]	0.91 µg/mL (≈ 1.42 µM)	2.03 µg/mL (≈ 3.16 µM)	0.91 µg/mL (≈ 1.42 µM)	2.03 µg/mL (≈ 3.16 µM)	2.03 µg/mL (≈ 3.16 µM)					
COc1nc2ccc(Br)cc2cc1C(c1ccccc1)C(O)(CCCCCN(C)C)c1ccc2ccccc2c1 (stereo not drawn) [Compound 59]			0.84 µg/mL (≈ 1.41 µM)	0.8 µg/mL (≈ 1.34 µM)		1.89 µg/mL (≈ 3.16 µM)	2.12 µg/mL (≈ 3.55 µM)	1.89 µg/mL (≈ 3.16 µM)		
COc1nc2ccccc2cc1C(c1ccc(Br)cc1)C(O)(CCCCN(C)C)c1ccc2ccccc2c1 (stereo not drawn) [Compound 64]			1.85 µg/mL (≈ 3.17 µM)	1.85 µg/mL (≈ 3.17 µM)		1.85 µg/mL (≈ 3.17 µM)	1.85 µg/mL (≈ 3.17 µM)	0.46 µg/mL (≈ 0.788 µM)		
CNCCCC(O)(c1ccc(F)cc1)C(c1ccccc1)c1cc2cc(Br)ccc2nc1OC (stereo not drawn) [Compound 69]	6.59 µg/mL (≈ 12.6 µM)			1.7 µg/mL (≈ 3.25 µM)		9.3 µg/mL (≈ 17.8 µM)		7.39 µg/mL (≈ 14.1 µM)	1.65 µg/mL (≈ 3.15 µM)	
COc1nc2ccc(Br)cc2cc1C(c1ccccc1)C(O)(CCCCN1CCNCC1)c1ccc2ccccc2c1 (stereo not drawn) [Compound 106]	1.98 µg/mL (≈ 3.17 µM)	1.98 µg/mL (≈ 3.17 µM)	1.98 µg/mL (≈ 3.17 µM)	1.98 µg/mL (≈ 3.17 µM)	1.98 µg/mL (≈ 3.17 µM)					
COc1nc2ccc(Br)cc2cc1C(c1ccccc1)C(O)(CCCCN1CCNCC1)c1ccc2ccccc2c1 (stereo not drawn) [Compound 107]			0.39 µg/mL (≈ 0.624 µM)			1.98 µg/mL (≈ 3.17 µM)	1.98 µg/mL (≈ 3.17 µM)	1.98 µg/mL (≈ 3.17 µM)		1.98 µg/mL (≈ 3.17 µM)
